Experimental data: publication PMC7179112, “Antimicrobial, Antioxidant, and Anticancer Activities of Some Novel Isoxazole Ring Containing Chalcone and Dihydropyrazole Derivatives” (Molecules, 2020)
In brackets after ≈: the same amount, converted by molar mass.

Assays:
Pseudomonas aeruginosa = assay: Antibacterial activity, serial tube dilution method; type: cell-based; conditions: Pseudomonas aeruginosa; Gram-negative; serial tube dilution; read-out: MIC P aeruginosa
Experimental: (§1) The target chalcones (17–31) and pyrazolines (32–46) were tested for their antimicrobial activities by serial tube dilution method against two types of bacterial and fungal strains (Table 1 and Table 2). The bacterial strains used for the testing, including Gram-positive Staphylococcus aureus and Gram-negative Pseudomonas aeruginosa, whereas the fungal strains employed were Aspergillus niger and Candida tropicalis.
(§2) The antibacterial and antifungal activity of the novel chalcones (17 to 31) and dihydropyrazoles (32 to 46) against the selected bacterial and fungal strains was assessed by following the procedure described in our previous paper.

Staphylococcus aureus = assay: as above; type: cell-based; conditions: Staphylococcus aureus; Gram-positive; serial tube dilution; read-out: MIC S aureus
Experimental: as §1, §2

Aspergillus niger = assay: Antifungal activity, serial tube dilution method; type: cell-based
Experimental: as §1, §2

Candida tropicalis = assay: Antifungal activity, serial tube dilution method; type: cell-based; conditions: read-out: MIC C tropicalis
Experimental: as §1, §2

[1] = DPPH free radical scavenging assay; conditions: antioxidant activity; average of three independent experiments
Experimental: The antioxidant activity of all 30 compounds was assessed using 1,1-diphenyl-2-picrylhydrazine (DPPH) free radical scavenging assay and the results are the average of three independent experiments (Table 3). Gallic acid was employed as a positive control. […] In the disubstituted series (20–25), compound 25 with substitutions at position 3 and 5 on the phenyl ring gave the highest activity of 9 µg/mL.
The purpose of this study was to evaluate the antioxidant activity of chalcones and pyrazolines using the DPPH free radical assay. The percentage of antioxidant activity (AA%) of all the compounds was assessed by the DPPH free radical assay. The measurement of the DPPH radical scavenging activity was performed according to methodology described by Brand-Williams et al. The samples were reacted with the stable DPPH radical in an ethanol solution. A 0.1 mM solution of DPPH was prepared by dissolving DPPH in methanol. Gallic acid was taken as a reference standard and different concentrations of test samples (5–100 µg/mL) and standard (1.0, 2.5, and 5.0 µg/mL) were prepared using methanol. One milliliter of 0.1 mM DPPH solution was added to 3 mL of all concentrations of test samples and standard separately. These mixtures were kept in dark for about 30 min and the absorbance was measured at 517 nm. The capability to scavenge the DPPH radical was calculated using the formula:(1) DPPH scavanged (%)= Absorbance of control−Absorbance of sample/Absorbance of control∗100 when DPPH reacted with an antioxidant compound and was reduced, the change in color (from deep violet to light yellow) was read [Absorbance (Abs)] at 517 nm after […] of reaction using a UV-VIS spectrophotometer.

[2] = system: prostate cancer cell line, DU-145; assay: MTT assay anticancer activity; type: cell-based; conditions: for IC50: Homo sapiens, MTT assay, mean ± SD (n = 3)
Experimental: All the 30 compounds were evaluated for their anticancer potency against the prostate cancer cell line, DU-145, employing colorimetric tetrazolium dye (MTT) assay. […] Among the disubstituted series 20–25, substitution at position 3 and 4 (compound 24) produced the best activity but was lower than the standard. […] Similar phenomena can be seen among the dihydropyrazole series.
The in vitro anticancer activity of chalcones (17 to 31) and dihydropyrazoles (32 to 46) was evaluated by the Mosmann’s MTT assay as described previously.

Human Normal Cells (L02) = assay: MTT assay toxicity on normal cells; type: cell-based
[3] = system: Staphylococcus aureus and Pseudomonas aeruginosa; assay: Antibacterial activity (strain not named); type: cell-based; conditions: text/figure value, strain not named
Experimental: as §1, §2

[4] = system: Aspergillus niger and Candida tropicalis; assay: Antifungal activity (strain not named); type: cell-based
Experimental: as §1, §2

[5] = text/figure value, strain not named

Row | MIC (Pseudomonas aeruginosa) [µg/mL] | MIC (Staphylococcus aureus) [µg/mL] | MIC (Aspergillus niger) [µg/mL] | MIC (Candida tropicalis) [µg/mL] | DPPH assay IC50 [1] | IC50 [2] [µg/mL] | MIC [3] [µg/mL] | IC50 [4] [µg/mL] | antifungal MIC [4, 5] [µg/mL] | MIC [4, 5] [µg/mL] | Anticancer potency MIC ([2]; given as MIC in text/Figure 3) [µg/mL] | SMILES | IC50 (Human Normal Cells (L02)) [µg/mL]
1 | 8 (≈ 22.8 µM) | 8 (≈ 22.8 µM) | 0.5 (≈ 1.43 µM) | 0.5 (≈ 1.43 µM) | 62 ± 1 µg/mL | 12 ± 2 (≈ 34.2 µM) | 8 (≈ 22.8 µM) | 2 ± 1 (≈ 5.7 µM) | 0.5 |  |  | COc1cc(Cl)c(C2CC(c3ccno3)=NN2C(N)=O)c(OC)c1 (stereo not drawn) [Compound 46] | > 40
2 | 4 (≈ 15.4 µM) | 4 (≈ 15.4 µM) | 4 (≈ 15.4 µM) | 4 (≈ 15.4 µM) | 16 ± 1 µg/mL | 33 ± 2 (≈ 127 µM) |  |  |  |  |  | COc1cccc(OC)c1/C=C/C(=O)c1ccno1 [Compound 23] | > 40
3 | 32 (≈ 123 µM) | 32 (≈ 123 µM) | 64 (≈ 247 µM) | 64 (≈ 247 µM) | 26 ± 2 µg/mL | 38 ± 1 (≈ 147 µM) |  |  |  |  |  | COc1ccc(OC)c(/C=C/C(=O)c2ccno2)c1 [Compound 22] | > 40
4 | 2 (≈ 6.81 µM) | 2 (≈ 6.81 µM) | 4 (≈ 13.6 µM) | 4 (≈ 13.6 µM) | 48 ± 1 µg/mL | 16 ± 2 (≈ 54.5 µM) |  |  |  |  |  | COc1cc(Cl)c(/C=C/C(=O)c2ccno2)c(OC)c1 [Compound 31] | > 40
5 | 64 (≈ 202 µM) | 64 (≈ 202 µM) | 16 (≈ 50.6 µM) | 16 (≈ 50.6 µM) | 32 ± 1 µg/mL | 16 ± 2 (≈ 50.6 µM) |  |  |  |  |  | COc1cccc(C2CC(c3ccno3)=NN2C(N)=O)c1OC (stereo not drawn) [Compound 35] | > 40
6 | 32 (≈ 101 µM) | 64 (≈ 202 µM) | 32 (≈ 101 µM) | 32 (≈ 101 µM) | 39 ± 2 µg/mL | 31 ± 2 (≈ 98 µM) |  |  |  |  |  | COc1ccc(OC)c(C2CC(c3ccno3)=NN2C(N)=O)c1 (stereo not drawn) [Compound 37] | > 40
7 | 8 (≈ 34.9 µM) | 4 (≈ 17.4 µM) | 8 (≈ 34.9 µM) | 8 (≈ 34.9 µM) | 33 ± 1 µg/mL | 32 ± 2 (≈ 140 µM) |  |  |  |  |  | COc1ccc(/C=C/C(=O)c2ccno2)cc1 [Compound 17] | > 40
8 | 2 (≈ 6.04 µM) | 2 (≈ 6.04 µM) |  |  |  |  |  |  |  |  |  | O=C(O)c1cn(C2CC2)c2cc(N3CCNCC3)c(F)cc2c1=O [Ciprofloxacin, reference compound] | 
9 | 16 (≈ 46.2 µM) | 32 (≈ 92.4 µM) | 16 (≈ 46.2 µM) | 16 (≈ 46.2 µM) | 10 ± 2 µg/mL | 18 ± 2 (≈ 52 µM) |  |  |  |  |  | COc1cc(OC)c(C2CC(c3ccno3)=NN2C(N)=O)cc1OC (stereo not drawn) [Compound 42] | > 40
10 |  |  |  |  | Gallic acid 5 ± 1 µg/mL |  |  |  |  |  |  | O=C(O)c1cc(O)c(O)c(O)c1 [Gallic acid, reference compound] | 
11 | 16 (≈ 55.9 µM) | 16 (≈ 55.9 µM) | 8 (≈ 27.9 µM) | 8 (≈ 27.9 µM) | 38 ± 2 µg/mL | 32 ± 2 (≈ 112 µM) |  |  |  | 8 (≈ 27.9 µM) |  | COc1ccccc1C1CC(c2ccno2)=NN1C(N)=O (stereo not drawn) [Compound 34] | > 40
12 |  |  |  |  |  | 5 (≈ 6.19 µM) |  |  |  |  | 5 | CC(=O)O[C@@]12CO[C@@H]1C[C@H](O)[C@@]1(C)C(=O)[C@H](O)C3=C(C)[C@@H](OC(=O)[C@H](O)[C@@H](NC(=O)OC(C)(C)C)c4ccccc4)C[C@@](O)([C@@H](OC(=O)c4ccccc4)[C@H]21)C3(C)C [Docetaxel, reference compound] | 
13 | 128 (≈ 447 µM) | 128 (≈ 447 µM) | 64 (≈ 224 µM) | 64 (≈ 224 µM) | 51 ± 2 µg/mL | 18 ± 2 (≈ 62.9 µM) |  |  |  |  |  | COc1cccc(C2CC(c3ccno3)=NN2C(N)=O)c1 (stereo not drawn) [Compound 33] | > 40
14 | 8 (≈ 25.3 µM) | 8 (≈ 25.3 µM) | 4 (≈ 12.6 µM) | 8 (≈ 25.3 µM) | 25 ± 2 µg/mL | 26 ± 2 (≈ 82.2 µM) |  |  |  |  |  | COc1ccc(C2CC(c3ccno3)=NN2C(N)=O)c(OC)c1 (stereo not drawn) [Compound 36] | > 40
15 | 256 (≈ 809 µM) | 256 (≈ 809 µM) | 64 (≈ 202 µM) | 64 (≈ 202 µM) | 12 ± 1 µg/mL | 8 ± 2 (≈ 25.3 µM) |  |  |  |  |  | COc1cc(OC)cc(C2CC(c3ccno3)=NN2C(N)=O)c1 (stereo not drawn) [Compound 40] | > 40
